The values that follow come from patent US9340532B2, “Methods and compositions for inhibiting CNKSR1” (PHUSIS THERAPEUTICS, INC., priority 2012, dated 2016).

Some results are limits rather than exact numbers.

The first test has as its target T1, CNK1 PH-domain (CNKSR1) (Homo sapiens, UniProt Q969H4).
T1 construct: The PH-domain His-fusion proteins (CNK1 and AKT1) were expressed and immobilized on a NTA chip; made in house
T1 sequence (Q969H4 403-502 limits assumed): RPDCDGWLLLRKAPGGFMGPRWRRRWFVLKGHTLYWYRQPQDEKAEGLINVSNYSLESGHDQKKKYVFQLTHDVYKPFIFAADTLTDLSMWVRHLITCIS
The test can be described thus: SPR binding assay (Biacore T100), CNK1 PH-domain. Conditions: Table 6; read-out: CNKS KD. The procedure: All interaction analyses were done with a Biacore T100 Control Software v3.2, and BIAevaluation v4.1 analysis software (Biacore). The PH-domain His-fusion proteins (CNK1 and AKT1) were expressed and immobilized on a NTA chip to a level of 10,000 response units or less. Small molecule analytes at concentrations ranging from 50 μM to 0.010 μM were injected at a high flow rate (30 μL/min) DMSO concentrations in all samples and running buffer were 1-5% (v/v).
Other docking was performed using modeling algorithms with state-of-the-art commercial drug discovery software (Schrodinger suite). […] Additionally, ligand-based approaches provided an alternative to structure based drug discovery. Ligand-based virtual screening methodologies can take into account shape and electrostatics (like ROCS) and the pharmacophoric features (acceptor, donor, hydrophobic, aromatic, etc.) of its functional groups. […] SPR interaction analyses of all other compounds was undertaken using a Biacore T100 with Control and Evaluation software kit.
As for `Cc1ccc(-c2csc(Cn3nc(CC4CN=CCO4)c4ccccc4c3=O)n2)cc1` (stereo not shown) [Compound 80], the Kd is over 100 µM.
As for `Cc1ccc(-c2csc(Cn3nc(CC(=O)NCCC(N)=O)c4ccccc4c3=O)n2)cc1` [Compound 81], the Kd was found to be 109 µM.

Still in this test, the particulars now being: Table 8; read-out: CNK KD.
Turning to `O=C(O)/C=C/c1cc(NS(=O)(=O)c2cccs2)c2c(c1O)OCO2` [Compound 89, (E)-3-(4-hydroxy-7-(thiophene-2-sulfonamido)benzo[d][1,3]dioxol-5-yl)acrylic acid], the Kd was 3.37 µM.

The same test, now with this note: date 11 26 13.
For the compound `CN1CC(=O)N(/C=C/c2cc(NS(=O)(=O)c3cccs3)c3c(c2O)OCO3)C1=O` [Compound 91], the “Surface Plasmon Resonance CNKSR1 binding (RU max)” value is given as −1.867 RU * 100/Da and the “Surface Plasmon Resonance CNKSR1 stability (RU max post-injection)” value was determined as 0.288 RU * 100/Da.
For `O=C1COC(=O)N1/C=C/c1cc(NS(=O)(=O)c2cccs2)c2c(c1O)OCO2` [Compound 100], the “Surface Plasmon Resonance CNKSR1 binding (RU max)” value is −1.240 RU * 100/Da and the “Surface Plasmon Resonance CNKSR1 stability (RU max post-injection)” value was −0.026 RU * 100/Da.
Taken in the same sequence, the figures for `CN1CC(=O)N(/C=C/c2cc(N(S(=O)(=O)c3cccs3)S(=O)(=O)c3cccs3)c3c(c2O)OCO3)C1=O` [Compound 128] were 1.409 RU * 100/Da and 0.456 RU * 100/Da.
In the case of `CCOC(=O)/C=C/c1cc(NS(=O)(=O)c2cccs2)c2c(c1OC)OCO2` [Compound 129], the “Surface Plasmon Resonance CNKSR1 binding (RU max)” value is reported as −0.133 RU * 100/Da and the “Surface Plasmon Resonance CNKSR1 stability (RU max post-injection)” value was −0.041 RU * 100/Da.
With `COc1cc(NS(=O)(=O)c2cccs2)c(SC)c(/C=C/N2C(=O)CN(C)C2=O)c1O` [Compound 132], the “Surface Plasmon Resonance CNKSR1 binding (RU max)” value was 0.457 RU * 100/Da and the “Surface Plasmon Resonance CNKSR1 stability (RU max post-injection)” value worked out at 0.906 RU * 100/Da.
Taken in the same sequence, the figures for `COc1cc(NS(=O)(=O)c2cccs2)c(SC)c(/C=C/N2C(=O)COC2=O)c1O` [Compound 133] were −1.537 RU * 100/Da and −0.123 RU * 100/Da.

Staying with this test, now noted: date 12 09 13.
Turning to `Cc1ccc(-c2csc(Cn3nc(CC(=O)NCCC(N)=O)c4ccccc4c3=O)n2)cc1` [Compound 81], the “Surface Plasmon Resonance CNKSR1 binding (RU max)” value was found to be 0.316 RU * 100/Da and the “Surface Plasmon Resonance CNKSR1 stability (RU max post-injection)” value is reported as 0.154 RU * 100/Da.
`Cc1ccc(-c2csc(Cn3nc(CC(=O)NCC(N)=O)c4ccccc4c3=O)n2)cc1` [Compound 82]: the “Surface Plasmon Resonance CNKSR1 binding (RU max)” value is 1.304 RU * 100/Da and the “Surface Plasmon Resonance CNKSR1 stability (RU max post-injection)” value came to 0.544 RU * 100/Da.
For `O=C(O)/C=C/c1cc(NS(=O)(=O)c2cccs2)c2c(c1O)OCO2` [Compound 89, (E)-3-(4-hydroxy-7-(thiophene-2-sulfonamido)benzo[d][1,3]dioxol-5-yl)acrylic acid], in that order: 1.350 RU * 100/Da and 1.401 RU * 100/Da.
`CN1CC(=O)N(/C=C/c2cc(N(S(=O)(=O)c3cccs3)S(=O)(=O)c3cccs3)c3c(c2O)OCO3)C1=O` [Compound 128]: the “Surface Plasmon Resonance CNKSR1 binding (RU max)” value is on record as −0.541 RU * 100/Da and the “Surface Plasmon Resonance CNKSR1 stability (RU max post-injection)” value was −0.304 RU * 100/Da.

The subject of a further test is A549 (KRAS mutant cell line). Description: Proliferation Assay A549. It counts as cell-based. The settings on record: Homo sapiens, N = 2 experiments. The procedure: (§1) The isogenic KRAS lines harboring G12D, G12C, and G12V were obtained from Horizon Discovery labs on a one year lease. These cells were cultured in McCoys media with 10% FBS to 80% confluency. Cells were then released from flasks via trypsinization and plated into 96-well plates at an initial density range of 2000 cells per well. Cells were allowed 24 hours to attach, and then the agents were added to the culture media at a range of concentrations from 0-100 μM. Cells were incubated for 72 hours with the drugs, and then viability was assessed using an MTS viability assay. Cells were exposed to MTS reagent (Promega) dissolved in PBS (Hyclone) at a concentration of 200 μL reagent/mL media for 2 hours. Absorbance was then read at 490 nm, and viability was expressed as a percentage normalized between the negative control (no cells plated) and the condition of cells with no drug added (100% viability) normalized as the upper limit of viability.
(§2) Our panel of 30 cell lines and an extensive characterization were obtained from Dr. John Minna (UTSW). All cell lines were cultured in RPMI 1640 with 10% FBS. Cells were treated with concentrations of agents at concentrations 0.01 to 50 μM and evaluated as described above. IC50's were determined using Excelfit.
Compound `Cc1ccc(-c2csc(Cn3nc(CC(=O)NCCC(N)=O)c4ccccc4c3=O)n2)cc1` [Compound 81] displayed an IC50 of 100 µM.
In turn, `Cc1ccc(-c2csc(Cn3nc(CC(=O)NCC(N)=O)c4ccccc4c3=O)n2)cc1` [Compound 82] had an IC50 of 51 µM.
`O=C(O)/C=C/c1cc(NS(=O)(=O)c2cccs2)c2c(c1O)OCO2` [Compound 89, (E)-3-(4-hydroxy-7-(thiophene-2-sulfonamido)benzo[d][1,3]dioxol-5-yl)acrylic acid]: the IC50 is over 100 µM.
Compound `CN1CC(=O)N(/C=C/c2cc(NS(=O)(=O)c3cccs3)c3c(c2O)OCO3)C1=O` [Compound 91] yielded an IC50 of over 100 µM.
The compound `O=C1COC(=O)N1/C=C/c1cc(NS(=O)(=O)c2cccs2)c2c(c1O)OCO2` [Compound 100] displayed an IC50 of over 100 µM.
`CN1CC(=O)N(/C=C/c2cc(N(S(=O)(=O)c3cccs3)S(=O)(=O)c3cccs3)c3c(c2O)OCO3)C1=O` [Compound 128]: the IC50 was over 100 µM.
In the case of `COc1cc(NS(=O)(=O)c2cccs2)c(SC)c(/C=C/N2C(=O)CN(C)C2=O)c1O` [Compound 132], the IC50 amounted to 72 µM. This counts as double-digit micromolar.
Same read-out and setting: with `COc1cc(NS(=O)(=O)c2cccs2)c(SC)c(/C=C/N2C(=O)COC2=O)c1O` [Compound 133] the figure was over 100 µM.

In the next test the test system is H1373 (KRAS mutant cell line). Description: Proliferation Assay H1373. The class given is cell-based. Conditions: Homo sapiens, NCI-H1373, N = 2 experiments. The method, then: as §1, §2
In the case of `Cc1ccc(-c2csc(Cn3nc(CC(=O)NCCC(N)=O)c4ccccc4c3=O)n2)cc1` [Compound 81], the IC50 came to 95 µM.
On the same count and under the same terms, with `Cc1ccc(-c2csc(Cn3nc(CC(=O)NCC(N)=O)c4ccccc4c3=O)n2)cc1` [Compound 82] the figure was 65 µM; with `O=C(O)/C=C/c1cc(NS(=O)(=O)c2cccs2)c2c(c1O)OCO2` [Compound 89, (E)-3-(4-hydroxy-7-(thiophene-2-sulfonamido)benzo[d][1,3]dioxol-5-yl)acrylic acid], over 100 µM.
Same read-out and setting: in the case of `CN1CC(=O)N(/C=C/c2cc(NS(=O)(=O)c3cccs3)c3c(c2O)OCO3)C1=O` [Compound 91] it was over 100 µM; in that of `O=C1COC(=O)N1/C=C/c1cc(NS(=O)(=O)c2cccs2)c2c(c1O)OCO2` [Compound 100], over 100 µM.
In the case of `CN1CC(=O)N(/C=C/c2cc(N(S(=O)(=O)c3cccs3)S(=O)(=O)c3cccs3)c3c(c2O)OCO3)C1=O` [Compound 128], the IC50 is over 100 µM.
For the compound `COc1cc(NS(=O)(=O)c2cccs2)c(SC)c(/C=C/N2C(=O)CN(C)C2=O)c1O` [Compound 132], inhibition was half-maximal at 60 µM (IC50).
The same measure, in the same setting: with `COc1cc(NS(=O)(=O)c2cccs2)c(SC)c(/C=C/N2C(=O)COC2=O)c1O` [Compound 133] the figure was over 100 µM.

The next test has as its system H1975 (KRAS wildtype cell line). The test can be described thus: Proliferation Assay H1975. It counts as cell-based. Conditions: Homo sapiens, NCI-H1975, n = 1. The procedure: as §1, §2
In turn, `Cc1ccc(-c2csc(Cn3nc(CC(=O)NCCC(N)=O)c4ccccc4c3=O)n2)cc1` [Compound 81] registered an IC50 of 80 µM. This counts as double-digit micromolar.
`Cc1ccc(-c2csc(Cn3nc(CC(=O)NCC(N)=O)c4ccccc4c3=O)n2)cc1` [Compound 82]: the IC50 was 70 µM.
The same measure, in the same setting: with `O=C(O)/C=C/c1cc(NS(=O)(=O)c2cccs2)c2c(c1O)OCO2` [Compound 89, (E)-3-(4-hydroxy-7-(thiophene-2-sulfonamido)benzo[d][1,3]dioxol-5-yl)acrylic acid] the figure was over 100 µM; with `CN1CC(=O)N(/C=C/c2cc(NS(=O)(=O)c3cccs3)c3c(c2O)OCO3)C1=O` [Compound 91], over 100 µM.
`O=C1COC(=O)N1/C=C/c1cc(NS(=O)(=O)c2cccs2)c2c(c1O)OCO2` [Compound 100] registered an IC50 of over 100 µM.
Consider `CN1CC(=O)N(/C=C/c2cc(N(S(=O)(=O)c3cccs3)S(=O)(=O)c3cccs3)c3c(c2O)OCO3)C1=O` [Compound 128], for which the IC50 was over 100 µM.
Still for that read-out and setting: in the case of `COc1cc(NS(=O)(=O)c2cccs2)c(SC)c(/C=C/N2C(=O)CN(C)C2=O)c1O` [Compound 132] it was over 100 µM.
`COc1cc(NS(=O)(=O)c2cccs2)c(SC)c(/C=C/N2C(=O)COC2=O)c1O` [Compound 133] returned an IC50 of over 100 µM.

The subject of a further test is H226 (KRAS wildtype cell line). The test can be described thus: Proliferation Assay H226. It counts as cell-based. The settings on record: Homo sapiens, NCI-H226, n = 1. The method, then: as §1, §2
`Cc1ccc(-c2csc(Cn3nc(CC(=O)NCCC(N)=O)c4ccccc4c3=O)n2)cc1` [Compound 81] showed a half-inhibitory concentration (IC50) of over 100 µM.
Turning to `Cc1ccc(-c2csc(Cn3nc(CC(=O)NCC(N)=O)c4ccccc4c3=O)n2)cc1` [Compound 82], the IC50 was over 100 µM.
For `O=C(O)/C=C/c1cc(NS(=O)(=O)c2cccs2)c2c(c1O)OCO2` [Compound 89, (E)-3-(4-hydroxy-7-(thiophene-2-sulfonamido)benzo[d][1,3]dioxol-5-yl)acrylic acid], the IC50 is over 100 µM.
With `CN1CC(=O)N(/C=C/c2cc(NS(=O)(=O)c3cccs3)c3c(c2O)OCO3)C1=O` [Compound 91], the IC50 is over 100 µM.
As to `O=C1COC(=O)N1/C=C/c1cc(NS(=O)(=O)c2cccs2)c2c(c1O)OCO2` [Compound 100], the IC50 is over 100 µM.
As to `CN1CC(=O)N(/C=C/c2cc(N(S(=O)(=O)c3cccs3)S(=O)(=O)c3cccs3)c3c(c2O)OCO3)C1=O` [Compound 128], the IC50 is over 100 µM.
On the same count and under the same terms, in the case of `COc1cc(NS(=O)(=O)c2cccs2)c(SC)c(/C=C/N2C(=O)CN(C)C2=O)c1O` [Compound 132] it was 60 µM; in that of `COc1cc(NS(=O)(=O)c2cccs2)c(SC)c(/C=C/N2C(=O)COC2=O)c1O` [Compound 133], 95 µM.
